Values quoted from earlier work in US20110159054A1, “NANOPARTICULATE BICALUTAMIDE FORMULATIONS” (Elan Pharma International Ltd., priority 2004, published 2011).

Details: 37° C., practically insoluble

CC(O)(CS(=O)(=O)c1ccc(F)cc1)C(=O)Nc1ccc(C#N)c(C(F)(F)F)c1 (racemic) [Bicalutamide]
solubility in water: 5 mg per 1000 mL
